{"source": "patent US5770201A", "about": "“HA-2 antigenic peptide” (Rijsuniversiteit Te Leiden, priority 1994, dated 1998)", "test_system": "T2 cell line for lysis by clone 5H17", "assay": "51Cr release assay: peptide sensitization of T2 for lysis by HA-2 specific CTL clone 5H17", "type": "cell-based, human", "conditions": "T2 cells", "note": "Where no end group is shown, it is not given here.", "data": [{"sequence": "YXGEVXVSV (X: residue not identified in the source) [synthetic peptide mixture, X stands for L or I]", "values": [{"measurement": "HA-2 specific sensitizing CTL activity (lysis of T2)", "value": "resulted in lysis of T2"}]}]}
